Data on 3 molecules can be found in US7307100B2, “2-Benzoylchromone derivatives” (Merck Patent GmbH, priority 2002, dated 2007).

One experiment has as its target PKB (Homo sapiens, UniProt P31749). In words: Inhibition of PKB (serine/threonine kinase). The class given is biochemical. The note with it: read-out: Inhibition of PKB expressed in IC50. Here is the method:
(§1) The 2-benzoylchromone derivatives were tested as tyrosine kinase inhibitors (see Table 1: Inhibition of TIE-2), but also as serine/threonine kinase inhibitors (see Table 1: PKB).

A further experiment deals with TIE-2 (Homo sapiens, UniProt Q02763). Description: Inhibition of TIE-2 (tyrosine kinase). In kind it is biochemical. The conditions noted are these: read-out: Inhibition of TIE-2 expressed in IC50. The method, then: as §1
Chain of TIE-2 (Q02763 23-1124): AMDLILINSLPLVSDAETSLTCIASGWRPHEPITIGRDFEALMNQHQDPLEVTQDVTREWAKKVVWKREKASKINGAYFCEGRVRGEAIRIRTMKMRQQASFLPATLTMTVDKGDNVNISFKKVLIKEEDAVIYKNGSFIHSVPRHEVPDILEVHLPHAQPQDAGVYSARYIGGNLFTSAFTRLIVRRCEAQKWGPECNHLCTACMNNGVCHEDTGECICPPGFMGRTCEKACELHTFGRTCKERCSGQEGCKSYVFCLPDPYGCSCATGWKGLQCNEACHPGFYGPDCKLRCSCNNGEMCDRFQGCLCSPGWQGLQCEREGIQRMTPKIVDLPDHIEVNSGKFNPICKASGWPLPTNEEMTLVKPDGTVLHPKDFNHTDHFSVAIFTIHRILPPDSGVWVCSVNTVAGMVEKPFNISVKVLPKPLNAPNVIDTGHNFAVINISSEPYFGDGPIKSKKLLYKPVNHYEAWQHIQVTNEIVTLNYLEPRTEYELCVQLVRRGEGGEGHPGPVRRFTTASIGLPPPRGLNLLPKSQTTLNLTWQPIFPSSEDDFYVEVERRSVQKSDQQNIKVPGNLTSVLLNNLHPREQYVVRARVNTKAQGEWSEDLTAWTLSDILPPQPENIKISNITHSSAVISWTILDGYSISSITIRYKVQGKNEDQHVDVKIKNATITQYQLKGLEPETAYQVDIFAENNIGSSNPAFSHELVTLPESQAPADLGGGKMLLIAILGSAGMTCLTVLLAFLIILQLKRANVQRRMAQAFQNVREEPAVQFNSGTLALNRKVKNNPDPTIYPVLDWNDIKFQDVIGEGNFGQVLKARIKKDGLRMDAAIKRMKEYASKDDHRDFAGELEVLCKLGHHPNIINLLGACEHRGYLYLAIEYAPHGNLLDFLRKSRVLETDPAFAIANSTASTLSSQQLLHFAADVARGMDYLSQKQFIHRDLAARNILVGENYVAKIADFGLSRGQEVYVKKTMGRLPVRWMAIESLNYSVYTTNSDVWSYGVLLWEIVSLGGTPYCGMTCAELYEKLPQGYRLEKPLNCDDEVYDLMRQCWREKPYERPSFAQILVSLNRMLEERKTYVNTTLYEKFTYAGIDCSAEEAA

Chain of PKB (P31749 whole entry): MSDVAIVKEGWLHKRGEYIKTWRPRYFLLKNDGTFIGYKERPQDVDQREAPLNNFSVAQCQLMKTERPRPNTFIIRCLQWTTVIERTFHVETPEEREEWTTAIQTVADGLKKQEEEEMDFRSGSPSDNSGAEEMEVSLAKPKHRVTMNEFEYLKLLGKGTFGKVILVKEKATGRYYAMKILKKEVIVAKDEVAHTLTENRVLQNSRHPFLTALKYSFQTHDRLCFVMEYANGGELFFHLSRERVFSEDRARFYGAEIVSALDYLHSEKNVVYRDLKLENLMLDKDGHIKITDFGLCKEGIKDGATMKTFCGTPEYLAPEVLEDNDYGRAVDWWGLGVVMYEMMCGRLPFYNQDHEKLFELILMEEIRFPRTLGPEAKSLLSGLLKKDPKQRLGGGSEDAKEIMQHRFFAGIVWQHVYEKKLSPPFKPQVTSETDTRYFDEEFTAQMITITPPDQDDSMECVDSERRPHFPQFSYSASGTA

In the case of `O=C(c1cc(=O)c2c(O)cccc2o1)c1ccc(O)cc1O` [5-hydroxy-2-(2′,4′-dihydroxybenzoyl)chromone], the values for the IC50 on PKB and on TIE-2 were above 30 µM and above 10 µM, respectively.
For the molecule `O=C(c1cc(=O)c2cc(O)ccc2o1)c1cc2c(cc1O)OCO2` [6-hydroxy-2-(2′-hydroxy-4′,5′-methylenedioxybenzoyl)chromone], the IC50 on PKB was above 30 µM; on TIE-2, above 10 µM.
Regarding `O=C(c1cc(=O)c2cc3c(cc2o1)OCO3)c1cc2c(cc1O)OCO2` [6,7-methylenedioxy-2-(2′-hydroxy-4′,5′-methylenedioxybenzoyl)chromone], the values for the IC50 at PKB and on TIE-2 were above 30 µM and 3.6 µM, respectively.
